# Laboratory results taken from US7301022B2, “Vanilloid receptor ligands and their use in treatments” (Amgen Inc., priority 2005, dated 2007).
# Counter-ions that a name gives are not always drawn.
row,melting point,SMILES
1,121.7 to 121.9 °C,"CC(=O)Nc1nc2c(Oc3cc(-c4ccc(C(F)(F)F)nc4NCC4CCCCN4CC(C)C)ncn3)cccc2s1 (racemic) [Example 31, N-(4-(6-(2-(((R,S)-1-isobutylpiperidin-2-yl)methylamino)-6-(trifluoromethyl)pyridin-3-yl)pyrimidin-4-yloxy)benzo[d]thiazol-2-yl)acetamide]"
2,111.1 to 113.9 °C,CC(C)CN1CCCCC1C(=O)Nc1cc(C(F)(F)F)ccc1-c1cc(Oc2cccc3ccc(N)nc23)ncn1 (stereo not drawn)
3,< 80 °C,"CC(=O)Nc1nc2c(Oc3cc(-c4ccc(C(F)(F)F)cc4NC(=O)C4(C)CCCCN4CC(C)C)ncn3)cccc2s1 (stereo not drawn) (as salt: trifluoroacetic acid salt) [Example 44, N-(2-(6-(2-Acetamidobenzo[d]thiazol-4-yloxy)pyrimidin-4-yl)-5-(trifluoromethyl)phenyl)-1-isobutyl-2-methylpiperidine-2-carboxamide trifluoroacetic acid salt]"
4,98.9 to 101.9 °C,"CC(C)CN1CCCCC1CN(C)c1nc(C(F)(F)F)ccc1-c1cc(Oc2cccc3sc(N)nc23)ncn1 (stereo not drawn) [Example 24, 4-(6-(2-(((1-Isobutylpiperidin-2-yl)methyl)(methyl)amino)-6-(trifluoromethyl)pyridin-3-yl)pyrimidin-4-yloxy)benzo[d]thiazol-2-amine]"
5,264 to 264.1 °C,"CC(=O)Nc1nc2c(Oc3cc(-c4ccc(C(F)(F)F)cc4NCc4cncn4Cc4ccccc4)ncn3)cccc2s1 [Example 54, N-(4-(6-(2-((1-Benzyl-1H-imidazol-5-yl)methylamino)-4-(trifluoromethyl)-phenyl)pyrimidin-4-yloxy)benzo[d]thiazol-2-yl)acetamide]"
6,140 to 141 °C,"CC(=O)Nc1nc2c(Oc3cc(-c4ccc(C(F)(F)F)nc4NC4CCN(C(C)C)C4)ncn3)cccc2s1 (stereo not drawn) [Example 4, N-(4-(6-(2-(1-Isopropylpyrrolidin-3-ylamino)-6-(trifluoromethyl)pyridin-3-yl)pyrimidin-4-yloxy)benzo[d]thiazol-2-yl)acetamide]"
7,263 to 265.2 °C,"CC(=O)Nc1nc2c(Oc3cc(-c4ccc(C(F)(F)F)cc4NCc4cncn4C)ncn3)cccc2s1 [Example 55, N-(4-(6-(2-((1-Methyl-1H-imidazol-5-yl)methylamino)-4-(trifluoromethyl)-phenyl)pyrimidin-4-yloxy)benzo[d]thiazol-2-yl)acetamide]"
8,174.4 to 174.9 °C,"CC(=O)Nc1nc2c(Oc3cc(-c4ccc(C(F)(F)F)cc4NC(=O)[C@@H]4CCN4CC(C)C)ncn3)cccc2s1 [Example 38, (2S)-N-(2-(6-(2-Acetamidobenzo[d]thiazol-4-yloxy)pyrimidin-4-yl)-5-(trifluoromethyl)phenyl)-1-isobutylazetidine-2-carboxamide]"
9,138 to 139 °C,"CC(=O)Nc1nc2c(Oc3cc(-c4ccc(C(F)(F)F)nc4NC4CCN(CC(C)C)C4)ncn3)cccc2s1 (stereo not drawn) [Example 3, N-(4-(6-(2-(1-Isobutylpyrrolidin-3-ylamino)-6-(trifluoromethyl)pyridin-3-yl)pyrimidin-4-yloxy)benzo[d]thiazol-2-yl)acetamide]"
10,212.3 to 213.5 °C,"CC(=O)Nc1nc2c(Oc3cc(-c4ccc(C(F)(F)F)cc4NC(=O)C4CCCCN4CC4CC4)ncn3)cccc2s1 (stereo not drawn) [Example 49, N-(2-(6-(2-Acetamidobenzo[d]thiazol-4-yloxy)pyrimidin-4-yl)-5-(trifluoromethyl)phenyl)-1-(cyclopropylmethyl)piperidine-2-carboxamide]"
11,105.8 to 107.3 °C,CC(=O)Nc1nc2c(Oc3cc(-c4ccc(C(F)(F)F)nc4NC[C@@H]4CCCN4CC(C)C)ncn3)cccc2s1 [Example 30]
12,162.9 to 164 °C,"CC1CC[C@@H](C(=O)Nc2cc(C(F)(F)F)ccc2-c2cc(Oc3cccc4ccc(N)nc34)ncn2)N1 (mixture of isomers) [Example 48, (2S,5R,S)-N-(2-(6-(2-Aminoquinolin-8-yloxy)pyrimidin-4-yl)-5-(trifluoromethyl)phenyl)-5-methylpyrrolidine-2-carboxamide]"
13,264 to 265.1 °C,"CC1(C)CC(Nc2nc(C(F)(F)F)ccc2-c2cc(Oc3cccc4sc(N)nc34)ncn2)CC(C)(C)N1 (as salt: trifluoroacetic acid salt) [Example 35, 4-(6-(2-(2,2,6,6-Tetramethylpiperidin-4-ylamino)-6-(trifluoromethyl)pyridin-3-yl)pyrimidin-4-yloxy)benzo[d]thiazol-2-amine trifluoroacetic acid salt]"
14,253.4 to 254.1 °C,"CC(=O)Nc1nc2c(Oc3cc(-c4ccc(C(F)(F)F)nc4NC4CC(C)(C)NC(C)(C)C4)ncn3)cccc2s1 (as salt: trifluoroacetic acid salt) [Example 36, N-(4-(6-(2-(2,2,6,6-Tetramethylpiperidin-4-ylamino)-6-(trifluoromethyl)-pyridin-3-yl)pyrimidin-4-yloxy)benzo[d]thiazol-2-yl)acetamide trifluoroacetic acid salt]"
15,198 °C (dec.),CC(C)CN1CCC[C@H]1CNc1nc(C(F)(F)F)ccc1-c1cc(Oc2cccc3sc(N)nc23)ncn1 [Example 25]
16,159.3 to 162 °C,CC(=O)Nc1nc2c(Oc3cc(-c4ccc(C(F)(F)F)nc4NCC4CCCCN4C(C)C)ncn3)cccc2s1 (stereo not drawn) [Example 32]
17,123.2 to 125.4 °C,"CC(=O)Nc1nc2c(Oc3cc(-c4ccc(C(F)(F)F)nc4N(C)CC4CCCCN4CC(C)C)ncn3)cccc2s1 (stereo not drawn) [Example 29, N-(4-(6-(2-(((1-isobutylpiperidin-2-yl)methyl)(methyl)amino)-6-(trifluoromethyl)pyridin-3-yl)pyrimidin-4-yloxy)benzo[d]thiazol-2-yl)acetamide]"
18,> 250 °C,"CC(C)CN1CCCCC1C(=O)Nc1cc(C(F)(F)F)ccc1-c1cc(Oc2cccc3[nH]c(=O)c(N)nc23)ncn1 (stereo not drawn) [Example 42, N-(2-(6-(3-Amino-2-oxo-1,2-dihydroquinoxalin-5-yloxy)pyrimidin-4-yl)-5-(trifluoromethyl)phenyl)-1-isobutylpiperidine-2-carboxamide]"
19,118 to 118.2 °C,CC(C)CN1CCCCC1CNc1nc(C(F)(F)F)ccc1-c1cc(Oc2cccc3sc(N)nc23)ncn1 (stereo not drawn) [Example 26]
20,153.4 to 154.9 °C,"CC(=O)Nc1nc2c(Oc3cc(-c4ccc(C(F)(F)F)cc4NC(=O)C4CCCCN4CC(C)C)ncn3)cccc2s1 (stereo not drawn) [Example 51, N-(2-(6-(2-Acetamidobenzo[d]thiazol-4-yloxy)pyrimidin-4-yl)-5-(trifluoromethyl)phenyl)-1-isobutylpiperidine-2-carboxamide]"
21,93.2 to 96.8 °C,CC(C)CN1CCC[C@H]1CN(C)c1nc(C(F)(F)F)ccc1-c1cc(Oc2cccc3sc(N)nc23)ncn1 [Example 28]
22,211.3 to 213 °C,CC(C)N1CCCCC1CNc1nc(C(F)(F)F)ccc1-c1cc(Oc2cccc3sc(N)nc23)ncn1 (stereo not drawn) [Example 27]
23,260 °C (dec.),"CC(=O)Nc1nc2c(Oc3cc(-c4ccc(C(F)(F)F)cc4NC(=O)C4CCCCN4C(C)C)ncn3)cccc2s1 (stereo not drawn) [Example 50, N-(2-(6-(2-Acetamidobenzo[d]thiazol-4-yloxy)pyrimidin-4-yl)-5-(trifluoromethyl)phenyl)-1-isopropylpiperidine-2-carboxamide]"
24,146.4 to 148.8 °C,"CC(=O)Nc1nc2c(Oc3cc(-c4ccc(C(F)(F)F)cc4NC(=O)C4(C)CCCCN4)ncn3)cccc2s1 (stereo not drawn) [Example 43, N-(2-(6-(2-Acetamidobenzo[d]thiazol-4-yloxy)pyrimidin-4-yl)-5-(trifluoromethyl)phenyl)-2-methylpiperidine-2-carboxamide]"
25,228 to 229 °C,CC(C)CN1CCCCC1CNc1nc(C(F)(F)F)ccc1-c1cc(Oc2cccc3[nH]c(=O)c(N)nc23)ncn1 (stereo not drawn) [Example 6]
26,198.8 to 199.4 °C,"CC(=O)Nc1nc2c(Oc3cc(-c4ccc(C(F)(F)F)cc4NC(=O)[C@@H]4CCN4C(C)C)ncn3)cccc2s1 [Example 37, (2S)-N-(2-(6-(2-Acetamidobenzo[d]thiazol-4-yloxy)pyrimidin-4-yl)-5-(trifluoromethyl)phenyl)-1-isopropylazetidine-2-carboxamide]"
27,166 to 170 °C,"CC(C)CN1CCCCC1C(C)(C)Nc1nc(C(F)(F)F)ccc1-c1cc(Oc2cccc3sc(N)nc23)ncn1 (stereo not drawn) [Example 5, 4-(6-(2-(2-(1-Isobutylpiperidin-2-yl)propan-2-ylamino)-6-(trifluoromethyl)pyridin-3-yl)pyrimidin-4-yloxy)benzo[d]thiazol-2-amine]"
